# Earlier results as cited in patent US11648213B2, “Transdermal therapeutic system containing asenapine” (LTS LOHMANN THERAPIE-SYSTEME AG, priority 2018, dated 2023).
# How the values were obtained:
# [1] = in vivo
# [2] = biological target: serotonin 5-HT2A receptors (Homo sapiens, UniProt P28223); settings: antagonist
# serotonin 5-HT2A receptors, sequence (P28223 whole entry): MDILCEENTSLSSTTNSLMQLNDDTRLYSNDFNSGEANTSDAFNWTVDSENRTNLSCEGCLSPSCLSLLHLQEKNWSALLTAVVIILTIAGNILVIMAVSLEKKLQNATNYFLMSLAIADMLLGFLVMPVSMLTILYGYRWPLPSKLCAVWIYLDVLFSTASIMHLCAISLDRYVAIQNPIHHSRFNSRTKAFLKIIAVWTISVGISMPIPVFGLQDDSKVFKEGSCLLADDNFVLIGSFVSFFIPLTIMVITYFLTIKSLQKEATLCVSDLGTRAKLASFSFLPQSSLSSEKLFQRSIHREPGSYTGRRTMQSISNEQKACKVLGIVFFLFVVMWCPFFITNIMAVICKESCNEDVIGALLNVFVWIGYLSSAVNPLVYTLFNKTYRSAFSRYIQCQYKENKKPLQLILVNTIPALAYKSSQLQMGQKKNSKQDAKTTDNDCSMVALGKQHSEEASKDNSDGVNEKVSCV
structure (smiles),measurement,setting,value
"CN1C[C@H]2c3ccccc3Oc3ccc(Cl)cc3[C@@H]2C1 (relative stereo) [asenapine, (3aRS,12bRS)-rel-5-chloro-2,3,3a,12b-tetrahydro-2-methyl-1H-dibenz[2,3:6,7]oxepino[4,5-c]pyrrole]",terminal disposition half-life,"following sublingual administration, therapeutic doses",≥ 24 h
same,bioavailability,if ingested,< 2%
same,"Somnolence and anxiety (very common), share of the patients",[1],≥ 10%
same,affinity to serotonin 5-HT2A receptors,[2],high affinity
